Experimental data from ChEMBL document CHEMBL1158094, “Paratunamides A-D, oxindole alkaloids from Cinnamodendron axillare” (J Nat Prod, 2006).
In brackets after ≈: the same amount, converted by molar mass.

Each molecule was assayed on KB (assay: Cytotoxicity against human KB cells).
Format: functional, cell-based

SMILES | IC50 [µg/mL]
C=C[C@H]1[C@H](O[C@@H]2O[C@H](CO)[C@@H](O)[C@H](O)[C@H]2O)OC=C2C(=O)N(CC[C@@]3(O)C(=O)Nc4ccccc43)[C@H](OC)C[C@H]21 [PARATUNAMIDE A] | > 10
C=C[C@H]1[C@H](O[C@@H]2O[C@H](CO)[C@@H](O)[C@H](O)[C@H]2O)OC=C2C(=O)N(CC[C@@]3(O)C(=O)Nc4ccccc43)C(=O)C[C@H]21 [PARATUNAMIDE B] | > 10
C=C[C@H]1[C@H](O[C@@H]2O[C@H](CO)[C@@H](O)[C@H](O)[C@H]2O)OC=C2C(=O)N(CC[C@]3(O)C(=O)Nc4ccccc43)C(=O)C[C@H]21 [PARATUNAMIDE C] | > 10
C=C[C@H]1[C@H](O[C@@H]2O[C@H](CO)[C@@H](O)[C@H](O)[C@H]2O)OC=C2C(=O)N(CC[C@@]3(O)C(=O)Nc4ccccc43)[C@H](O)C[C@H]21 [PARATUNAMIDE D] | 6 (≈ 10.9 µM)
